What is called IC50 is the concentration that inhibits the measured activity by half.

SMILES strings stand for the structures.

Our source for the IC50 and change in vivo values is patent US5079246A, “Novel indoloquinlones” (Beacham Group p. l. c., priority 1988, dated 1992).

The target in assay [1] is site on or near the Cl^- channel portion of the GABAA /BDZ/Cl^- channel complex. The assay is described as follows: [^35 S]-TBPS binding to rat cerebral cortex membranes in vitro. The conditions noted are these: 2 nM [^35 S]-TBPS, pH 7.1, 25° C. The protocol:
[^35 S]-TBPS binding to rat cerebral cortex membranes in vitro
[^35 S]-TBPS labels a site on or near the Cl^- channel portion of the GABAA /BDZ/Cl^- channel complex. Literature studies have shown that [^35 S]-TBPS binding is directly related to the permeability of the Cl^- channel (e.g. Concas et al, 1988).
Modulation of [^35 S]-TBPS binding is measured by a method similar to that of Gee et al (1986).
Pooled rat cerebral cortices were homogenised in 20 volumes of 0.32M sucrose and centrifuged at 1000 g for 20 minutes (4° C.). The supernatant was removed and recentrifuged at 50,000 g (4° C., 20 mins). The P2 pellet was then suspended in 20 volumes of Tris citrate buffer (pH 7.1) and centrifuged at 50,000 g (4° C., 20 mins). This washing step was repeated three times and the pellet finally resuspended in 20 volumes of buffer and stored at -70° C. prior to use.
[…] Non-specific binding was measured in the presence of 10^-4 M picrotoxin. Varying concentrations of test drugs 10^-7, 10^-6, 10^-5 and 10^-4 M final concentration)were added in a volume of 50 μl. The total assay volume was 500 μl. Incubation was stopped by rapid filtration using a Skatron cell harvester and radioactivity measured by liquid scintillation spectrometry. IC50 's were calculated as the concentration of test drug to inhibit 50% of specific binding. Concas A. et al, (1988) J. Neurochem. 51(6), 1868-1876. Gee K. W. et al, (1986) Mol. Pharmacol. 30, 218-225.

A short description of assay [2]: Geller-Seifter procedure (anxiolytic conflict test in rats). Type of assay: in vivo. As to conditions: Rattus norvegicus, po, 1 h, 60 min before testing, read-out: increase in responding in the `conflict` session (percentage increase in square root of total lever presses in FR5); for change in vivo at 20 mg/kg: 20 mg/kg p.o. The protocol:
Potential anxiolytic properties have been evaluated using the Geller-Seifter procedure based on that originally described by Geller and Seifter (1960) Psychopharmacologia, 1, 482-492.
Rats are trained on a variable interval 30 sec schedule (VI30) to press a lever in order to obtain food reward. The 3 min sessions of the VI30 schedule alternate with 3 min of a schedule (FR5) in which every 5th lever press is followed by a presentation of a food pellet paired with a 0.2 sec mild footshock. The amplitude of the shock is adjusted for each rat to give equivalent response rates. The total study consists of VI and FR components and lasts 30 mins. Rats typically respond with high rates of lever pressing under the VI30 schedule and low response rats under the FR5 `conflict` session. Anxiolytic drugs increase the suppressed response rates of rats in `conflict` sessions.
The compound is administered intraperitoneally or orally to groups of 6-16 rats 30 min (intraperitoneal route) or 60 min (oral route) before testing.
The results are expressed as the percentage increase in square root of the total number of lever presses in the FR5 `conflict` sessions. Square root transformation is necessary to normalise the data for statistical analysis using parametric methods. A change in the square root of the VI can indicate non-specific drug effects i.e. stimulation or sedation.

As to `C#CCC1CCc2nc3c(c(N)c2C1=O)c1ccccc1n3C` (racemic) [Example E14, (±) 11-Amino-6-methyl-2-(2-propynyl)-1,2,3,4-tetrahydro-6H-quinindolin-1-one], the IC50 in assay [1] (done in the presence of GABA) stood at 1000 nM. As for `Cn1c2ccccc2c2c(N)c3c(nc21)CCC3=O` [Example E17, 10-Amino-5-methyl-cyclopenta[5,6]pyrido[2,3-b]indol-1-one], the change in vivo at 100 mg/kg in assay [2] (100 mg/kg p.o.) was 37%. Consider `CCn1c2ccccc2c2c(N)c3c(nc21)CCCC3=O` [Example E5, 11-Amino-6-ethyl-1,2,3,4-tetrahydro-6H-quinindolin-1-one], for which the half-maximal inhibitory concentration (IC50) in assay [1] (done in the absence of GABA) is 7500 nM. For the same compound, the change in vivo at 20 mg/kg in assay [2] came to 29%. On to `CC1CC(C)c2nc3c(c(N)c2C1=O)c1ccccc1n3C` (racemic) [Example E15, (±) 11-Amino-1,2,3,4-tetrahydro-2,4,6-trimethyl-6H-quinindolin-1-one], for which the IC50 in assay [1] (done in the presence of GABA) is 3800 nM. In the case of `Cn1c2ccccc2c2c(N)c3c(nc21)CC(C)(C)CC3=O` [Example E8, 11-Amino-1,2,3,4-tetrahydro-3,3,6-trimethyl-6H-quinindolin-1-one], the IC50 in assay [1] (done in the absence of GABA) was found to be 4400 nM.

With `CC1CC(=O)c2c(nc3c(c2N)c2ccccc2n3C)C1` (racemic) [Example E10, (±) 11-Amino-3,6-dimethyl-1,2,3,4-tetrahydro-6H-quinindolin-1-one], the change in vivo at 20 mg/kg in assay [2] turned out to be 17%.

Consider `CC1CCc2nc3c(c(N)c2C1=O)c1ccccc1n3C` (racemic) [Example E11, (±) 11-Amino-2,6-dimethyl-1,2,3,4-tetrahydro-6H-quinindolin-1-one], for which the IC50 in assay [1] (done in the presence of GABA) came out at 1200 nM. The change in vivo at 20 mg/kg in assay [2] amounted to 52%.

As for `Cn1c2ccccc2c2c(N)c3c(nc21)CCCC3=O` [Example E4, 11-Amino-6-methyl-1,2,3,4-tetrahydro-6H-quinindolin-1-one], the change in vivo at 20 mg/kg in assay [2] was 29%. As to `CCCn1c2ccccc2c2c(N)c3c(nc21)CCCC3=O` [Example E6, 11-Amino-6-n-propyl-1,2,3,4-tetrahydro-6H-quinindolin-1-one], in assay [1] (done in the absence of GABA), the IC50 is 3800 nM. The change in vivo at 20 mg/kg in assay [2] was determined as 17%. As to `Cn1c2ccccc2c2c(N)c3c(nc21)CCCCC3=O` [Example E16, 12-Amino-7-methyl-cyclohepta[5,6]pyrido[2,3-b]indol-1-one], the IC50 in assay [1] (done in the presence of GABA) is 3300 nM. Besides, the change in vivo at 20 mg/kg in assay [2] was determined as 11%.

Regarding `CCC1CCc2nc3c(c(N)c2C1=O)c1ccccc1n3C` (racemic) [Example E12, (±) 11-Amino-2-ethyl-6-methyl-1,2,3,4-tetrahydro-6H-quinindolin-1-one], the IC50 in assay [1] (done in the presence of GABA) was determined as 1400 nM. Moreover, the change in vivo at 20 mg/kg in assay [2] worked out at 33%. For the compound `C=CCn1c2ccccc2c2c(N)c3c(nc21)CCCC3=O` [Example E7, 11-Amino-6-(2-propenyl)-1,2,3,4-tetrahydro-6H-quinindolin-1-one], the IC50 in assay [1] (done in the presence of GABA) is 1900 nM. Besides, the change in vivo at 20 mg/kg in assay [2] is 16%.

For the compound `Cn1c2ccccc2c2c(N)c3c(nc21)CCC(C)(C)C3=O` [Example E13, 11-Amino-1,2,3,4-tetrahydro-2,2,6-trimethyl-6H-quinindolin-1-one], the half-maximal inhibitory concentration (IC50) in assay [1] (done in the presence of GABA) came to 1700 nM. Also, in assay [2], the change in vivo at 20 mg/kg worked out at 21%.

Consider `Nc1c2c(nc3[nH]c4ccccc4c13)CCCC2=O` [Example E1, 11-Amino-1,2,3,4-tetrahydro-6H-quinindolin-1-one], for which, in assay [2], the change in vivo at 20 mg/kg turned out to be 16%.
